Series [1] is described as follows: HPLC-ESI-MSMS quantification of α-GalCer in formulated test samples. It counts as physicochemical. As to conditions: level of α-GalCer in freshly reconstituted formulated samples. The protocol:
Compounds of the invention are formulated analogously to reported methods for α-GalCer. Briefly, solubilisation of α-GalCer is based on excipient proportions described by Giaccone et al. (Giaccone, Punt et al. 2002). Thus, 100 μL of a 10 mg/mL solution of α-GalCer or a compound of the invention in 9:1 THF/MeOH is added to 1.78 mL of an aqueous solution of Tween 20 (15.9 mg), sucrose (177 mg) and L-histidine (23.8 mg). This homogeneous mixture is freeze dried and the resulting foam is stored under Ar at −18° C. This material is reconstituted with 1.0 mL of PBS or water prior to serial dilutions in PBS to achieve final injectable solutions of α-GalCer or compounds of the invention.
Quantification of the amount of α-GalCer in various test samples of compounds of the invention is made by HPLC-ESI-MSMS analysis using a Waters 2795 HPLC and a Waters Q-TOF Premier™ Tandem Mass Spectrometer. The chromatography used a Phenomenex Kinetex C18 […] 3.0×50 mm column eluting with isocratic methanol containing 10 mM ammonium formate+0.5% formic acid at a flow rate of 0.2 mL/min. α-GalCer is monitored by selective […] monitoring of 898.7 to 696.7 Da. The estimate of amount of α-GalCer is made by comparison of ion count integrals to a standard curve run on the same day or by comparison to test samples spiked with a known amount of α-GalCer. The level of α-GalCer is determined on freshly reconstituted formulated samples unless otherwise stated

Series [2] relates to splenic dendritic cells. The series can be described thus: Impact of prior vaccination on response to free α-GalCer two weeks later, CD86 on splenic dendritic cells (FIGS. 6, 7). It counts as in vivo, mice. As to conditions: 200 ng α-GalCer intravenously two weeks after vaccination, FIGS. 6 and 7. The protocol: Flow cytometry is used to assess CD86 upregulation on splenic dendritic cells after intravenous injection of 200 ng α-GalCer, which is used as a readout of NKT cell activity. Mean fluorescence index (MFI)±SEM are presented. […] Each dot represents a different animal; mean per treatment group (n=3)±SEM are presented. ***p<0.001, **p<0.01, * p<0.05.

For series [3], the system named is T-cell. As to conditions: Parekh, Wilson et al. 2005; cited from earlier work.
The conditions of series [4]: Giaccone, Punt et al. 2002; cited from earlier work.
For series [5] the following is noted: Ebensen, Link et al. 2007; cited from earlier work.
The subject of series [6] is SIINFEKL-specific T cells. The series can be described thus: Analysis of peptide-specific T cell proliferation in vivo (FIGS. 2, 5, 8, 9). The arrangement: species or system mice. How it is done: (SEQ ID NO:262) peptide in each case. To increase sensitivity of the assay, all mice are initially donated a cohort of 10,000 […] (SEQ ID NO:262)-specific T cells from a transgenic mouse encoding a T cell receptor for this antigen (OT-1 mice) by intravenous injection of the cells one day before the vaccines are administered. […] It is therefore possible to enumerate […] (SEQ ID NO:262)-specific T cells in blood by flow cytometry using antibodies for CD45.1 together with antibodies for the transgenic T cell receptor (Vα2). […] Control animals are injected with the diluent phosphate-buffered saline (PBS). […] Each dot represents a different animal; mean per treatment group±SEM are presented.
Accumulation of antigen-specific T cells in the blood in response to vaccination is measured 7 days later, as described for FIG. 2.
Pooled lymph node cell suspensions are prepared from animals of a cross between OT-I mice, which express a transgenic T cell receptor (TCR) specific for the ovalbumin epitope […] in the context of H-2K^b molecules, and B6.SJL-Ptprc^a Pepc^b/BoyJ mice, which are congenic with C57BL/6 mice for the CD45.1^+ marker. The samples are enriched for CD8^+ cells using antibody coated magnetic beads (Miltenyi), and then transferred into recipient mice (1×10^4 per mouse). Groups of recipient animals (n=5) are immunized with compounds of the invention one day later. Doses are chosen to provide equivalent molar values of […] peptide. Control animals receive phosphate-buffered saline. After seven days, blood samples are collected from the lateral tail vein and stained directly ex vivo with antibodies for TCR Vα2, CD45.1 and CD8 to detect the […]-specific CD8^+ T cells by flow cytometry.

Series [7] has as its system leukocyte infiltration into the lungs. The series can be described thus: Allergic airway inflammation in OVA-sensitized animals (FIG. 13). As to conditions: three days after challenge. The format is in vivo, mice. The protocol: Control animals receive intranasal PBS instead of challenge, and positive control groups receive challenge but no treatment (“OVA”). The prodrug vaccines and admixed α-GalCer and peptide are administered seven days before challenge […], while the in vitro activated OVA257-specific CTL are administered one day before challenge (day 23). The total numbers of cells in BAL fluid (left), and numbers of eosinophils (right), are evaluated three days after challenge by flow cytometry.

Series [8] deals with CD11c+ dendritic cells. The series can be described thus: CD86 expression on splenic dendritic cells after intravenous injection (FIG. 1). It counts as in vivo, C57BL/6 mice. As to conditions: 0.571 nmol intravenously, spleens 20 h later. The protocol: Groups of C57BL/6 mice (n=3) are injected intravenously with 0.571 nmol of the indicated compounds and then the spleens removed 20 h later for the analysis of CD86 expression on CD11c^+ dendritic cells by antibody labelling and flow cytometry. Mean fluorescence index (MFI)±SEM are presented.
Antibody staining and flow cytometry is used to examine the expression of maturation markers on dendritic cells in the spleen following injection of compounds of the invention. Splenocyte preparations are prepared by gentle teasing of splenic tissue through gauze in Iscove's Modified Dulbecco's Medium with 2 mM glutamine, 1% penicillin-streptomycin, 5×10^-5 M 2-mercapto-ethanol and 5% fetal bovine serum (all Invitrogen, Auckland, New Zealand), followed by lysis of red blood cells with RBC lysis buffer (Puregene, Gentra Systems, Minneapolis, Minn., USA). Antibody staining is performed in PBS 2% fetal bovine serum and 0.01% sodium azide. The anti-FcgRII monoclonal antibody 2.4G2 is used at […] to inhibit non-specific staining. Monoclonal antibodies (all BD Biosciences Pharmingen, San Jose, Calif., USA) are used to examine expression of the maturation markers CD40, CD80 and CD86 on CD11c+ dendritic cells.

Regarding `CCCCCCCCCCCCCCCCCCCCCCCCCC(=O)OC(CCCCCCCCCCCCCC)C(O)C(COC1OC(CO)C(O)C(O)C1O)NC(=O)OCc1ccc(NC(=O)C(CCCNC(N)=O)NC(=O)C(NC(=O)OCc2ccccc2)C(C)C)cc1` [CN165, (2S,3S,4R)-1-O-α-D-Galactopyranosyl-4-O-hexacosanoyl-2-(N-Cbz-Val-Cit-4-aminobenzyloxycarbonylamino) octadecane-1,3,4-triol], the α-GalCer/injection in series [1] was found to be 0.028 ng. For the same molecule, the “DC activation (CD86 upregulation) on administration of free α-GalCer after earlier vaccination” value in series [2] was “some DC activation”.
Take `CCCCCCCCCCCCCCCCCCCCCCCCCC(=O)OC(CCCCCCCCCCCCCC)C(O)C(COC1OC(CO)C(O)C(O)C1O)NC(=O)OCc1ccc(NC(=O)C(CCCCN)NC(=O)C(Cc2ccccc2)NC(=O)OCc2ccccc2)cc1` [CN166, (2S,3S,4R)-1-O-α-D-Galactopyranosyl-4-O-hexacosanoyl-2-(N-Cbz-Phe-Lys-4-aminobenzyloxycarbonylamino) octadecane-1,3,4-triol]: the α-GalCer/injection in series [1] is listed as 0.136 ng. In addition, the “DC activation (CD86 upregulation) on administration of free α-GalCer after earlier vaccination” value in series [2] is reported as “some DC activation”.
Consider `CCCCCCCCCCCCCCCCCCCCCCCCCC(=O)N[C@@H](CO[C@H]1O[C@H](CO)[C@H](O)[C@H](O)[C@H]1O)[C@H](O)[C@H](O)CCCCCCCCCCCCCC` [α-GalCer, α-Galactosylceramide], for which, in series [3], the T-cell anergy result is “promotion of T-cell anergy”. The “efficacy in human clinical trials” value in series [4] was “lack of efficacy”. For the same molecule, in series [2], the “DC activation (CD86 upregulation) on administration of free α-GalCer after earlier vaccination” value is given as “no measurable activation of DCs”. The solubility result in series [5] was “poor solubility”.
Turning to “(2S,3S,4R)-1-O-α-D-Galactopyranosyl-4-hexacosanoyl-2-((4-(2-(FFRKSIINFEKL)-2-oxoethoxy)imino)pentanoyloxy)methoxycarbonylamino) octadecane-1,3,4-triol [CN152]”, the “T cell expansion on repeated administration” value in series [6] (FIG. 8) is reported as “induces further T cell expansion”. Also, the “T cell response on boosting after priming with SIINFEKL with α-GalCer (unconjugated)” value in series [6] (boost day 14 or 35, read day 21 or 42, blood, FIG. 9) was “induces measurable T cell responses”. In series [6] (depletion by diphtheria toxin, FIG. 2), the “dependence of the T cell response on langerin+ CD8α+ DCs” value is given as “dependent on langerin^+ CD8α^+ DCs”. Moreover, the “population of SIINFEKL-specific T cells (Vα2+ CD45.1+) in blood” value in series [6] (intravenous vaccination, compared with admixed α-GalCer and peptide, lang-EGFPDTR mice, FIG. 2) is given as “larger population of peptide-specific T cells”. Besides, the “leukocyte infiltration into the lungs (total number of cells in BAL fluid)” value in series [7] (vaccination of sensitized mice one week before challenge) is “significantly suppress leukocyte infiltration into the lungs”. Further, the “infiltration of eosinophils (BAL fluid)” value in series [7] (vaccination seven days before challenge) was “superior to both CN178 and admixed groups”. Further, the “activation of DCs (expression of activation marker CD86 on splenic DCs)” value in series [8] is listed as “potently activates DCs”. In series [1], this molecule registered a α-GalCer/injection of 0.05 ng. For the same molecule, the “DC activation (CD86 upregulation) on administration of free α-GalCer after earlier vaccination” value in series [2] is “some DC activation”.

Source of the values: patent publication US9764037B2, “Conjugate compounds” (Victoria Link Limited, priority 2012, dated 2017).
